Measurements as given in patent publication US7919117B2, “Transdermal delivery of (R)-3,3-diphenylpropylamin-monoestern” (UCB Pharma GmbH, priority 2003, dated 2011).

Legend:
[1] = Flow of active ingredient in the mouse skin model (in-vitro flux, horizontal diffusion cell); assay type: in vitro ADME; details: salt introduced into the polymer layer, also with oleic acid etc. (Table 1)
Procedure: 3.1. Determination of the Flow of Active Ingredient in the Mouse Skin Model Belly and back skin in a thickness of approximately 120 to 150 μm was used in a horizontal diffusion cell for the flux measurements through mouse skin. Medium: phosphate buffer solution (0.066 molar) pH 6.2, 32° C. Release of the active ingredient was determined by HPLC.

[2] = Flow of active ingredient in the human skin model according to Tanojo (in-vitro flux); assay type: in vitro ADME; details: see Table 1
Description: 3.2. Determination of the Flow of Active Ingredient in the Human Skin Model (a) experimental Design The determination of the fesoterodine flux through human skin was essentially performed as described in H. Tanojo et al, J. Control Rel. 45 (1997) 41-47, where instead of the silicone membrane a dialysis membrane was used [[…] Dialysemembran, type 10. 14, obtained from the company Dianorm, Munich, Germany, manufactured from neutral cellulose, exclusion size 5000 Da, thickness (dry): 25 μm; pretreatment in accordance with manufacturer information]. Human skin in a thickness of approximately 250 μm was obtained from the abdomen. A TTS with a surface of 2.545 cm^2 was applied on human skin of equal surface size, where the skin on the acceptor site lays on a […] membrane (FIG. 5). PBS (0.066 molar) was used as the acceptor phase at pH 6.2 and a temperature of 32±0.5° C. The experiments were performed over 72 hours with a 5 ml/hour flux, whereby samples were taken every 3 hours. At the times that the samples are taken, the releasing medium is replaced with fresh medium thermo stated at 32±0.5° C. and the amount of the released fesoterodine measured per HPLC. […]

[3] = Stability at processing temperatures in the hot melt procedure; assay type: physicochemical; details: processing temperatures up to 200° C.
Description: In a hot melt procedure the polymers and any auxiliary agents are thermally melted and mixed without the use of any solvents and the meltings spread out on foil. The active ingredient is normally introduced directly into the liquid melt. […] The dynamic viscosity may be determined in the process as described in U.S. Pat. No. 5,328,696.
An alternative procedure that dispenses with the use of organic solvents is the hot melt procedure. In this procedure the polymer or the contact adhesive are melted at temperatures between 70 and 200° C., preferably between 90 and 160° C. and especially preferably between 100 and 150° C. and the active ingredient introduced into the homogenized matrix melt. After a brief homogenization the adhesive matrix that contains the active ingredient is cooled again so that the active ingredient is exposed to a thermal load in general for less than 5 minutes, if desired even for 4, 3, 2 or even for less than 1 minute. Following this the active ingredient is present in the solidified polymer melt. During the process the active ingredient is broadly shielded from critical environmental influences (light, oxygen).

[4] = Stabilization of fesoterodine in various matrices during storage (drop in concentration); assay type: physicochemical; details: storage for 6 months at 5° C.
Procedure: While, for example, the free base of fesoterodine is decomposed as an oil after storage for 6 months at 5° C. to around 3-4% a drop in concentration cannot be established or can only be established essentially to a lesser extent when fesoterodine is incorporated in matrices, which contain polar components.

CC(C)C(=O)Oc1ccc(CO)cc1[C@H](CCN(C(C)C)C(C)C)c1ccccc1.O=C(O)/C=C/C(=O)O [fumarate salt from fesoterodine, (R)-2-[3-(1,1-diisopropylamino)-1-phenylpropyl]-4-(hydroxymethyl)phenyl isobutyrate hydrogen fumarate]
flux rates (in words) [1]: flux rates not sufficient for transdermal treatment

CC(C)N(CCC(c1ccccc1)c1cc(CO)ccc1O)C(C)C (stereo not shown) [2-[3-(1,1-diisopropylamino)-1-phenylpropyl]-4-(hydroxymethyl)phenol]
rate of penetration through the human skin (in words) [2]: very low rate of penetration

CC(C)C(=O)Oc1ccc(CO)cc1[C@H](CCN(C(C)C)C(C)C)c1ccccc1 [fesoterodine, (R)-2-[3-(1,1-diisopropylamino)-1-phenylpropyl]-4-(hydroxymethyl)phenyl isobutyrate]
stability at hot melt processing temperatures (in words) [3]: surprisingly stable
Decomposition of the free base stored as an oil [4]: 3-4%
